# Marks after values point to notes of the source that are not given here.
# Columns and labels:
# [1] = biological target: T1, human FRβ (CHO-FRβ cells) (Homo sapiens, UniProt P14207); test: Relative affinity assay: displacement of [3H]FA from CHO-FRβ cells; format: binding; details: 37°C, competitor of [3H]FA, inverse molar ratio to displace 50%
# T1 construct: host or cells: CHO-K1 cells
# Experimental: (§1) The relative affinities of EC0746, AMT, and MTX were determined according to a previously established method except that both KB cells and CHO-FRβ cells were used as the sources of FR [33]. KB cells are a human cancer cell line known for elevated expression of FRα. CHO-FRβ cells were obtained from Manohar Ratnam, Department of Biochemistry and Cancer Biology, The University of Toledo (Toledo, OH, USA). This cell line was originally generated by stable integration and amplification of a human FRβ cDNA expression construct in CHO-K1 cells.
# [2] = test system: rat TG-macs; test: Viability of thioglycollate-elicited peritoneal macrophages; format: cell-based; details: 72-hour incubation; no effect at concentrations as high as stated
# Experimental: Female Lewis rats (175 to 200 g) were purchased from Harlan Sprague Dawley (Indianapolis, IN, USA) and were allowed to acclimate for 1 week. To obtain peritoneal macrophages, rats were dosed intraperitoneally with an aged thioglycollate (TG) medium (20 ml/kg) and euthanized 3 days later. The peritoneal cavity of the animals was lavaged with 60 ml ice-cold phosphate-buffered saline to collect peritoneal exudate. The TG-elicited macrophages in the peritoneal fluids were obtained after a red cell lysing step and a 2-hour adherence in folate-free RPMI 1640 medium (Mediatech, Manassas, VA, USA) containing 1% heat-activated fetal calf serum and antibiotics. The purity of the resulting macrophage population (herein referred to as rat TG-macs) was determined to be ~90% pure based on CD11b/c expression (data not shown). […] Unless otherwise specified, all cells were maintained in the folate-free RPMI 1640 medium containing 10% heat-activated fetal calf serum and antibiotics (FFRPMI) under a 5% CO2 atmosphere.
# Unlike RAW264.7 cells, rat TG-macs display little proliferative activity ex vivo and therefore were used in our studies to represent inflammatory macrophages in a low proliferative state. […] LPS (5 μg/ml) and IFNγ (100 ng/ml) were then added to the treated cells 24 hours prior to the end of incubation to stimulate the release of cytokines/chemokines, which were then detected with a rat cytokine antibody array.
# [3] = oral exposure, mice; cited from earlier work
# [4] = biological target: T2, FRα (FRα-expressing KB cells) (Homo sapiens, UniProt P15328); test: Relative affinity assay: displacement of [3H]FA from KB cells; format: binding; details: 37°C, competitor of [3H]FA, inverse molar ratio to displace 50%
# T2 construct: both KB cells and CHO-FRβ cells were used as the sources of FR; endogenous in cells; host or cells: KB cells
# Experimental: as §1
# [5] = test system: adjuvant-induced arthritis; test: Rat adjuvant-induced arthritis (AIA) model; format: in vivo; details: for Body weight change (%): day 24 relative to day 10
# Experimental: The rats were then inoculated intradermally (at the base of tail) with 0.5 mg heat-killed M. butyricum (BD Diagnostic Systems) in 100 μl light mineral oil (Sigma-Aldrich, St Louis, MO, USA). […] For each study, two or three rats from the same colony were not induced for arthritis and were used as healthy controls.
# Unless noted otherwise, all drug treatments started on day 10 after arthritis induction and lasted for two consecutive weeks with biweekly (BIW, Mondays and Thursdays) or once-weekly (QW, Mondays) dosing regimens.
# EC0746 was given subcutaneously (s.c.) in a dosing range of 25 to 1,000 nmol/kg (QW or BIW); MTX was given s.c. or orally at 250 nmol/kg (BIW) or 1,650 nmol/kg (QW); and etanercept (10 mg/kg) was given s.c. once every 3 days for a 12-day span. The QW MTX dosing regimen was to mimic MTX administration in humans, and this particular dose of 1,650 nmol/kg per week (that is, 0.75 mg/kg per week) was reportedly active as an intraperitoneal agent in the AIA model. To distinguish the anti-inflammatory mechanisms of EC0746 and MTX in vivo, a therapeutically irrelevant folate-containing competitor (EC0923, molecular weight 672) was used in 500-fold molar excess to block the activities of EC0746 and MTX at 250 nmol/kg (BIW).
# Formalin-fixed hind paws were examined by a board-certified veterinary radiologist who had no knowledge of the study groups. Specific criteria were used to establish a numerical grade of severity for each radiographic change: increased soft tissue volume (0 to 4), narrowing or widening of joint spaces (0 to 5), subchondral erosion (0 to 3), periosteal reaction (0 to 4), osteolysis (0 to 4), subluxation (0 to 3), and degenerative joint changes (0 to 3). Scores are limited to the tarsus, and the maximum possible score per foot was 26 [39]. The histopathological analysis was also performed in a blind fashion by an independent contract laboratory (Bolder BioPATH Inc., Boulder, CO, USA). The arthritic ankles were scored on a scale of 0 to 5 for inflammation, bone resorption, pannus formation, and cartilage damage, with a maximal histology score of 20 per foot.
# [6] = set-up: method as in PMID 10726889; details: rats, 0.1 mg/kg; cited from earlier work
# [7] = s.c., 1,650 nmol/kg once weekly
# T2 sequence (P15328 25-257): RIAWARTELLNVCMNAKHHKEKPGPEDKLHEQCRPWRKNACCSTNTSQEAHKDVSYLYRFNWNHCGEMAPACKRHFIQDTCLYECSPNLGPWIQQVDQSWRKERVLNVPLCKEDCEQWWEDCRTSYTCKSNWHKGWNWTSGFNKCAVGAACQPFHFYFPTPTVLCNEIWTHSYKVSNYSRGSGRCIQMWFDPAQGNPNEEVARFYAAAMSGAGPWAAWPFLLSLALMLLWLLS
# T1 sequence (P14207 17-255): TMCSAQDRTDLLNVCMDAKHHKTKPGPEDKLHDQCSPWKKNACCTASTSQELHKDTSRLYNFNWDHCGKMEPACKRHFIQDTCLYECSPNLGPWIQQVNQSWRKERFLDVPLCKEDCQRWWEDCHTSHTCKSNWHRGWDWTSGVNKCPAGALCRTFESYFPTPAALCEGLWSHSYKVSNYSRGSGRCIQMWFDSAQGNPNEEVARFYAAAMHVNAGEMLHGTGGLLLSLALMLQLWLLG
compound,measurement,setting,value
"CN(Cc1cnc2nc(N)nc(N)c2n1)c1ccc(C(=O)N[C@@H](CCC(=O)O)C(=O)O)cc1 [MTX, methotrexate, reference compound]",Relative affinity value (FA = 1),[1],0.005
same,Concentration affecting TG-macs viability,[2],> 10 µM
same,Acute 50% lethal dose,[3],89 mg/kg
same,Relative affinity value (FA = 1),[4],0.018
same,Decrease in summed histology score,"[5]; oral, 250 nmol/kg biweekly",73%
same,Reduction in dorsal to ventral paw thickness,"[5]; oral, 250 nmol/kg biweekly",63%
same,Weight loss due to disease progression,"[5]; oral, 1,650 nmol/kg (0.75 mg/kg) once weekly",~ 10%
same,Splenomegaly (percentage increase in spleen weight relative to healthy rats),"[5]; p.o., 250 nmol/kg biweekly from day 10",42 ± 17%
same,Inhibition in paw edema (%),"[5]; p.o., 250 nmol/kg biweekly from day 10, paw weight day 24",70 ± 5%
same,Body weight change (%),"[5]; p.o., 250 nmol/kg biweekly",-14 ± 2%
same,Inhibition in paw edema (%),"[5]; p.o., 1,650 nmol/kg once weekly, calculated based on arthritis scores on day 24",47 ± 10^f %
same,Body weight change (%),"[5]; p.o., 1,650 nmol/kg once weekly",-10 ± 2%
same,Splenomegaly (percentage increase in spleen weight relative to healthy rats),"[5]; s.c., 250 nmol/kg biweekly from day 10",24 ± 3%
same,Inhibition in paw edema (%),"[5]; s.c., 250 nmol/kg biweekly from day 10, paw weight day 24",78 ± 10%
same,Anti-arthritic activity in presence of EC0923 competitor,"[5]; s.c., 250 nmol/kg biweekly plus EC0923 125 μmol/kg, P > 0.05",not significantly blocked
same,Body weight change (%),"[5]; s.c., 250 nmol/kg biweekly",-2 ± 4%
same,Weight loss,[5]; [7],~ 7%
same,Inhibition in paw edema (%),"[5]; s.c., 1,650 nmol/kg once weekly, calculated based on arthritis scores on day 24",63 ± 13^f %
same,Body weight change (%),[5]; [7],-7 ± 8%
same,Oral bioavailability,[6],21%

# — paper PMC3132048, “Treatment of experimental adjuvant arthritis with a novel folate receptor-targeted folic acid-aminopterin conjugate” (Arthritis Research & Therapy, 2011)
